Assay results from patent US12115207B2, “Treatment of inflammation” (Ariel Scientific Innovations Ltd., priority 2019, dated 2024).
Bridges are numbered along the chain shown (N, C = ends).

Experiments:
[1] = system: crown-like structures (macrophages) in adipose tissue; experiment: Crown-like structures in adipose tissue (H&E histology) of submissive mice; type: in vivo; conditions: sub-chronic 10 and 30 mg/kg, H&E staining, FIG. 2C
Experimental: The adipose tissue of submissive mice treated with 10 and 30 mg/kg of ALOS4 were excised and fixed with 4% formalin overnight at 4° C., followed by dehydration and paraffin embedding (Cat #BN0763, Barnaor). Serial sections of 5 μm thickness were cut and placed on charged glass slides (LE-14035838925, Leica, Germany) and incubated for 1 h at 60° C. At least three slides from each adipose tissue sample with 300 μm distance between sections were collected for histological staining. Prior to Hematoxylin and Eosin (H&E), all sections were subjected to de-paraffinized and hydrated by decreasing concentrations of ethanol in deionized water.
De-paraffinized and hydrated slides were immersed in Meyer's Hematoxylin solution (Cat #HX68597049, MERCK) for 5 min, washed for 5 min with tap water, and then immersed in Eosin solution (Cat #HX6109259, MERCK) for 2 min, rehydrated and mounted with Entalain.
Macrophages were evaluated by a scoring system using light microscopy. A score of 1 is characterized by the absence of crown like structures in framed field, 10-20 crowns characterize the score of 2, a score of 3—20-30 crown like structures, a score of 4—30-40 crowns and a score of 5—abundant crowns (40-50).

[2] = system: interferon type I signaling; experiment: ISRE response, HCT116 ISRE Luc reporter cells stimulated with Poly I:C; type: cell-based; conditions: pretreatment with 0.3 μM for 48 h, FIG. 1B
Experimental: (§1) HT1080 cells transfected with mCherry reporter under an ISRE (Interferon-Sensitive Response Element) promoter and HCT116 with Luc reporter under ISRE promoter were used. Raw 264.7 (undifferentiated murine macrophages) cell line was also used. The cells were cultured in appropriate media: Dulbecco's Modified Eagle Medium (DMEM) (Cat #41965-039, Gibco) with 4.5 g/l glucose and L-glutamine augmented with 10% FBS (Gibco, Grand Island, NY), 100 U/ml penicillin and 100 μg/ml streptomycin in a humidified atmosphere at 37° C. with 5% CO2.
HCT116 ISRE Luc cells were plated in 96-well plates at 3×10^3 cells/well. The next day DMEM was replaced with DMEM containing 0.3 μM of ALOS4 or saline as control with/without PEI—transfection reagent, and cells continued to grow for 48 h. Following the 48 h incubation 1 μg/ml of Poly I:C was added for an additional 16 h incubation. After this second incubation the media was removed, 30 μl of Bright-Glo™ Luciferase Assay System (Promega, Cat #E2610) was added. Plate was read with plate reader on Luminescent parameters.

[3] = system: interferon type I signaling; experiment: ISRE response, HT1080 ISRE mCherry reporter cells stimulated with Poly I:C; type: cell-based; conditions: pretreatment with 0.3 μM for 48 h, FIG. 1A, 1C
Experimental: as §1
HT1080 ISRE mCherry cells were plated in 6-well plates at 2×10^4 cells/well. […] Following the 48 hour incubation, 25 μg/well of Polyinosinic:polycytidylic acid (Poly I:C)—a chemical compound structurally similar to double-stranded RNA and acting via Toll Like Receptor-3 molecular pathway activation, was added for an additional 16 h incubation. After this second incubation, cells were subjected to fluorescent imaging followed by washing with 1×PBX, trypsinization and resuspension with 300 μl of 1×PBS. 200 μl of cell suspension were further loaded into 96-well black clear bottom plates. Strength of mCherry fluorescence signal was detected by an ELISA reader with multiple reads per well at 574Ex/610Em.

[4] = system: Raw267.4 cells; experiment: Nitric oxide level assay, LPS-induced macrophage differentiation; type: cell-based, mouse; conditions: FIG. 2D
Experimental: Ability of ALOS4 to affect macrophage differentiation to pro- and anti-inflammatory macrophages was evaluated on mouse monocyte macrophages (Raw267.4) using the nitric oxide level assay. Cells were plated at a density of 1×10^5 cells/ml in 12 well plates for 12 h, followed by treatment with LPS (200 ng/ml) and ALOS4 (0.3 and 30 μM). Nitric oxide production of monocyte differentiation to pro-inflammatory M1 was detected with Griess reaction kit (Cat #G2930, Promega) according to the protocol. The absorbance was read at 540 nm with ELISA plate reader (Tecan infinite M200pro, Switzerland) and nitric oxide concentration was calculated using the Nitrite Standard Reference Curve.

[5] = system: serum cytokines; experiment: Serum cytokine array after sub-chronic treatment of submissive mice; type: in vivo
Experimental: Submissive mice are derivates from “Sabra” strain were maintained under a 12 h light/12 h dark cycle with Purina rodent chow (Envigo, Israel) and water provided ad libitum. The animals were housed five per cage. All procedures with animals were performed after review and approval by the Institutional Animal Care and Use Committee of Ariel University.
Blood samples of submissive mice treated with control, as well as 10 and 30 mg/kg of ALOS4 were collected by terminal bleeding from the heart and centrifuged at 14,000 rpm for 20 min. Serum was removed to a new tube and stored at −80° C. for future use. Mouse XL Cytokine Array Kit (Cat #ARYO28, R&D) was used to detect the cytokines in the serum of submissive mice according to the manufacturer's instructions. Serum from treatment groups (saline, 10 and 30 mg/kg ALOS4) was added to each membrane. Streptavidin-HRP and Chemi Reagent Mix were used to detect the antibodies bound to the membrane. The membranes were then exposed (Image Quant LAS4000 mini; GE Healthcare, Milwaukee, WI, USA) and analyzed using ImageQuant TL software (GE Healthcare).

[6] = 10 and 30 mg/kg i.v., every second day within 10 days, FIG. 2A

H-cycl (Cys-Ser-Ser-Ala-Gly-Ser-Leu-Phe-Cys)-OH (H-CSSAGSLFC-OH; disulfide 1-9 (inferred)) [ALOS4]
frequency of crown-like structures in fat pads [1]: a decrease in frequency was observed
ability of cells to induce interferon type I signaling in response to Poly I:C (luciferase) [2]: suppressed
ability of cells to induce interferon type I signaling in response to Poly I:C (mCherry fluorescence) [3]: suppressed
nitric oxide (indicator of differentiation to pro-inflammatory macrophages) ([4]; LPS-induced, one-way ANOVA p<0.01 and p<0.001): significant dose-dependent decrease
differentiation of macrophages to pro-inflammatory M1 ([4]; Raw267.4 cells, LPS 200 ng/ml, 0.3 and 30 μM for 24 hours): inhibited differentiation of the macrophages to pro-inflammatory M1 in a dose dependent manner
IL-1α/IL-1F1 in blood [5, 6]: did not change
total interleukins in blood as compared to the control group [5, 6]: downregulation
pro-inflammatory markers (Jak-STAT signaling pathway) in serum ([5]; sub-chronic 10 and 30 mg/kg, FIG. 2B): strong tendency toward down-regulation
